Reference: publication PMC11121183, “Functional Characterization of a Spectrum of Genetic Variants in a Family with Succinic Semialdehyde Dehydrogenase Deficiency” (International Journal of Molecular Sciences, 2024)

Experiments:
[1] = target: T1, Succinic semialdehyde dehydrogenase (SSADH) (Homo sapiens, UniProt P51649); test: purified enzyme turnover, NADH formation at […] nm ([…] SSA, […] NAD+); type: biochemical
T1 construct: gene ALDH5A1; recombinant SSADH, amino acids 48–535, N-terminal His-tag
T1 sequence (P51649 48-535): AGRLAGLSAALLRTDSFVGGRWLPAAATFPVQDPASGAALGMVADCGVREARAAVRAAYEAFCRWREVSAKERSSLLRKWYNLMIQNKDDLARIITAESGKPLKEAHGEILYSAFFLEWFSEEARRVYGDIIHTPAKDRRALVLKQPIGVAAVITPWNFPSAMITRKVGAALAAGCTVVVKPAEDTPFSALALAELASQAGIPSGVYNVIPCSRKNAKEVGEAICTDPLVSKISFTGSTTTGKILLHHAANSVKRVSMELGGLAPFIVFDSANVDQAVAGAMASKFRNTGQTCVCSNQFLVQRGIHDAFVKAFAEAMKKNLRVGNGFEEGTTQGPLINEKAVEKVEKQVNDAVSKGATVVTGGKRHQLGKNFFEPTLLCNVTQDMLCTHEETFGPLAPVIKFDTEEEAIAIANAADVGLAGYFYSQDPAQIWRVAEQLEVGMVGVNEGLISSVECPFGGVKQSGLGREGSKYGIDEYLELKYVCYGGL

[2] = target: T2, Succinic semialdehyde dehydrogenase (SSADH) (Homo sapiens, UniProt P51649, H180Y); test: as above; type: biochemical
T2 construct: gene ALDH5A1; recombinant SSADH, amino acids 48–535, N-terminal His-tag
T2 sequence (P51649 48-535 H180Y): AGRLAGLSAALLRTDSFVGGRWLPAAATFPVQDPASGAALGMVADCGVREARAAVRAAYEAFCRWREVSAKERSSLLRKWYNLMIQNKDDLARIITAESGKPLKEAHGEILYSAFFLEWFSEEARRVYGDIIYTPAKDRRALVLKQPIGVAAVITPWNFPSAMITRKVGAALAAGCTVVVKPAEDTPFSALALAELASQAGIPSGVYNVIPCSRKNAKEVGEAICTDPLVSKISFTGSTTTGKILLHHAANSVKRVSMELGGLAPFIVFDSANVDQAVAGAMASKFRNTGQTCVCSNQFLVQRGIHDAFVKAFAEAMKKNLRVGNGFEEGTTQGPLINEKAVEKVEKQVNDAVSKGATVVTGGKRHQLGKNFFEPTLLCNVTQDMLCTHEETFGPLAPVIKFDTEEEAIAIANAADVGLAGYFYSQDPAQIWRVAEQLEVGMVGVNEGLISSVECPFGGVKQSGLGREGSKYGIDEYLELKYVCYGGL

[3] = target: T2, Succinic semialdehyde dehydrogenase (SSADH); test: intrinsic fluorescence titration (excitation […] nm); CD and Tm shift of about […] °C in support; type: binding
[4] = target: T3, Succinic semialdehyde dehydrogenase (SSADH) (Homo sapiens, UniProt P51649, H180Y/N255D); test: intrinsic fluorescence titration (excitation […] nm); type: binding
T3 construct: gene ALDH5A1; recombinant SSADH, amino acids 48–535, N-terminal His-tag
T3 sequence (P51649 48-535 H180Y/N255D): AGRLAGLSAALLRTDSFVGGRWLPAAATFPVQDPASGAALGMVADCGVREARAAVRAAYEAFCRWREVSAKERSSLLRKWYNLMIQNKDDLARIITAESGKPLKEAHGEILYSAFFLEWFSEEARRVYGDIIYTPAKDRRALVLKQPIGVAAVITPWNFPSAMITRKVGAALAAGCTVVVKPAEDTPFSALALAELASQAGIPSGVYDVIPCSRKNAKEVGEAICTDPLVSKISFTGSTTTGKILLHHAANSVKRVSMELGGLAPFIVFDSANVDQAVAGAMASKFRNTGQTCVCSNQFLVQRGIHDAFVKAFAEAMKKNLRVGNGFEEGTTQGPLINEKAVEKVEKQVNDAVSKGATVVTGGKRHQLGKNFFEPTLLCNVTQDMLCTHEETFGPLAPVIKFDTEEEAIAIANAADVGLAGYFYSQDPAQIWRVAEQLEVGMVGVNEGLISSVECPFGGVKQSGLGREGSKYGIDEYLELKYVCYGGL

[5] = target: T1, Succinic semialdehyde dehydrogenase (SSADH); test: intrinsic fluorescence titration (excitation […] nm); CD and Tm shift of about […] °C in support; type: binding
[6] = target: the molecule itself; test: SEC; Superdex 200 (10/300), 100 mM potassium phosphate, 150 mM NaCl, pH 8; 0.1 to 5 mg/mL protein loaded; 280 nm signal

O=CCCC(=O)O [Succinic semialdehyde]
purified enzyme turnover, NADH formation at 340 nm (10 μM SSA, 500 μM NAD+) [1]: 65 s⁻¹ | purified enzyme turnover, NADH formation at 340 nm (10 μM SSA, 500 μM NAD+) [2]: 54 s⁻¹

NC(=O)c1ccc[n+]([C@@H]2O[C@H](COP(=O)([O-])OP(=O)(O)OC[C@H]3O[C@@H](n4cnc5c(N)ncnc54)[C@H](O)[C@@H]3O)[C@@H](O)[C@H]2O)c1 [NAD+]
Kd [3]: 3 ± 1 µM | Kd [4]: 33 ± 13 µM | Kd [5]: 2.8 ± 0.3 µM

B1: Succinic semialdehyde dehydrogenase (SSADH), wildtype, recombinant (amino acids 48-535) (enzyme, human, UniProt P51649-1 48-535, looked up)
chain: AGRLAGLSAALLRTDSFVGGRWLPAAATFPVQDPASGAALGMVADCGVREARAAVRAAYEAFCRWREVSAKERSSLLRKWYNLMIQNKDDLARIITAESGKPLKEAHGEILYSAFFLEWFSEEARRVYGDIIHTPAKDRRALVLKQPIGVAAVITPWNFPSAMITRKVGAALAAGCTVVVKPAEDTPFSALALAELASQAGIPSGVYNVIPCSRKNAKEVGEAICTDPLVSKISFTGSTTTGKILLHHAANSVKRVSMELGGLAPFIVFDSANVDQAVAGAMASKFRNTGQTCVCSNQFLVQRGIHDAFVKAFAEAMKKNLRVGNGFEEGTTQGPLINEKAVEKVEKQVNDAVSKGATVVTGGKRHQLGKNFFEPTLLCNVTQDMLCTHEETFGPLAPVIKFDTEEEAIAIANAADVGLAGYFYSQDPAQIWRVAEQLEVGMVGVNEGLISSVECPFGGVKQSGLGREGSKYGIDEYLELKYVCYGGL
notes: No thrombin cleavage of the His-tag is described; also called WT SSADH; WT; source: E. coli BL21, purified (HisTrap, single step)
stoichiometry N [6]: 4

B2: Succinic semialdehyde dehydrogenase (SSADH) His180Tyr variant, recombinant (amino acids 48-535) (enzyme, human, UniProt P51649-1 48-535, looked up)
chain: AGRLAGLSAALLRTDSFVGGRWLPAAATFPVQDPASGAALGMVADCGVREARAAVRAAYEAFCRWREVSAKERSSLLRKWYNLMIQNKDDLARIITAESGKPLKEAHGEILYSAFFLEWFSEEARRVYGDIIYTPAKDRRALVLKQPIGVAAVITPWNFPSAMITRKVGAALAAGCTVVVKPAEDTPFSALALAELASQAGIPSGVYNVIPCSRKNAKEVGEAICTDPLVSKISFTGSTTTGKILLHHAANSVKRVSMELGGLAPFIVFDSANVDQAVAGAMASKFRNTGQTCVCSNQFLVQRGIHDAFVKAFAEAMKKNLRVGNGFEEGTTQGPLINEKAVEKVEKQVNDAVSKGATVVTGGKRHQLGKNFFEPTLLCNVTQDMLCTHEETFGPLAPVIKFDTEEEAIAIANAADVGLAGYFYSQDPAQIWRVAEQLEVGMVGVNEGLISSVECPFGGVKQSGLGREGSKYGIDEYLELKYVCYGGL
notes: No thrombin cleavage of the His-tag is described; also called H180Y; rs2760118 variant; source: E. coli BL21, purified (HisTrap, single step)
stoichiometry N [6]: 4
